Values joined by “and” are separate entries in the source; they are usually repeats but may differ in a detail not shown here. Equal values may be shown once.
Legend:
[1] = Safety assessment (adverse events, clinical laboratory, ECG); type: in vivo, human
Experimental: Safety assessments were performed throughout the study from screening and included adverse event reporting, physical examination, vital signs, clinical laboratory evaluation (hematology, biochemistry, and urinalysis), electrocardiography (ECG), and malaria clinical score recording. The malaria clinical score served as a clinical indication of the severity of the induced malaria infection; 14 signs and symptoms commonly associated with malaria were graded using a 3-point scale (0 = absent, 1 = mild, 2 = moderate, and 3 = severe), and the values were summed in order to generate an overall score (with a maximum possible score of 42). The severity of AEs was graded in accordance with the Common Terminology Criteria for Adverse Events, version 4.03 (https://evs.nci.nih.gov/ftp1/CTCAE/CTCAE_4.03/CTCAE_4.03_2010-06-14_QuickReference_5x7.pdf).

P. vivax = tested on: P. vivax; design: method as in PMID 25075833; details: 30 mg per day for 3 days, P. vivax malaria patients; cited from earlier work

Structure (SMILES): C[C@H]1Cc2c([nH]c3cc(Cl)c(F)cc23)[C@@]2(N1)C(=O)Nc1ccc(Cl)cc12 [cipargamin]
- Abdominal discomfort ([1]; 10 mg, N=8): 4 (50.0) n (%)
- Alanine aminotransferase increased ([1]; 10 mg, N=8): 2 (25.0) n (%)
- Arthralgia ([1]; 10 mg, N=8): 2 (25.0) n (%)
- Aspartate aminotransferase increased ([1]; 10 mg, N=8): 1 (12.5) n (%)
- Cardiac disorders (system organ class) ([1]; 10 mg, N=8): 1 (12.5) n (%)
- Chills ([1]; 10 mg, N=8): 3 (37.5) n (%)
- Decreased appetite ([1]; 10 mg, N=8): 3 (37.5) n (%)
- Diarrhoea ([1]; 10 mg, N=8): 2 (25.0) n (%)
- Drug-induced liver injury ([1]; 10 mg, N=8): 1 (12.5) n (%)
- Eye disorders (system organ class) ([1]; 10 mg, N=8): 1 (12.5) n (%)
- Gamma-glutamyltransferase increased ([1]; 10 mg, N=8): 2 (25.0) n (%)
- Gastrointestinal disorders (system organ class) ([1]; 10 mg, N=8): 5 (62.5) n (%)
- General disorders and administration site conditions (system organ class) ([1]; 10 mg, N=8): 6 (75.0) n (%)
- Haemoptysis ([1]; 10 mg, N=8): 1 (12.5) n (%)
- Head discomfort ([1]; 10 mg, N=8): 1 (12.5) n (%)
- Headache ([1]; 10 mg, N=8): 5 (62.5) n (%) and 5 n (%)
- Hepatobiliary disorders (system organ class) ([1]; 10 mg, N=8): 1 (12.5) n (%)
- Hyperhidrosis ([1]; 10 mg, N=8): 3 (37.5) n (%)
- Investigations (system organ class) ([1]; 10 mg, N=8): 3 (37.5) n (%)
- Lethargy ([1]; 10 mg, N=8): 4 (50.0) n (%)
- Liver function test abnormal ([1]; 10 mg, N=8): 1 (12.5) n (%)
- Liver tenderness ([1]; 10 mg, N=8): 1 (12.5) n (%)
- Malaise ([1]; 10 mg, N=8): 4 (50.0) n (%)
- Metabolism and nutrition disorders (system organ class) ([1]; 10 mg, N=8): 3 (37.5) n (%)
- Musculoskeletal and connective tissue disorders (system organ class) ([1]; 10 mg, N=8): 5 (62.5) n (%)
- Myalgia ([1]; 10 mg, N=8): 5 (62.5) n (%) and 5 n (%)
- Nausea ([1]; 10 mg, N=8): 1 (12.5) n (%)
- Neck pain ([1]; 10 mg, N=8): 1 (12.5) n (%)
- Nervous system disorders (system organ class) ([1]; 10 mg, N=8): 6 (75.0) n (%)
- Non-cardiac chest pain ([1]; 10 mg, N=8): 1 (12.5) n (%)
- Photophobia ([1]; 10 mg, N=8): 1 (12.5) n (%)
- Pyrexia ([1]; 10 mg, N=8): 6 (75.0) n (%) and 6 n (%)
- Rales ([1]; 10 mg, N=8): 1 (12.5) n (%)
- Rash ([1]; 10 mg, N=8): 1 (12.5) n (%)
- Respiratory, thoracic and mediastinal disorders (system organ class) ([1]; 10 mg, N=8): 3 (37.5) n (%)
- Rhinorrhoea ([1]; 10 mg, N=8): 1 (12.5) n (%)
- Skin and subcutaneous tissue disorders (system organ class) ([1]; 10 mg, N=8): 4 (50.0) n (%)
- Subjects with at least one adverse event ([1]; 10 mg, N=8): 8 (100) n (%)
- Tachycardia ([1]; 10 mg, N=8): 1 (12.5) n (%)
- Urticaria ([1]; 10 mg, N=8): 1 (12.5) n (%)
- AEs leading to discontinuation: No. (%) of subjects ([1]; 10 mg, 8 subjects): 0 (0)
- AEs leading to discontinuation: No. of AEs ([1]; 10 mg, 8 subjects): 0
- AEs mild in severity, of all AEs ([1]; 10 mg, 8 subjects): 68/89
- Any AEs, cipargamin related: No. (%) of subjects ([1]; 10 mg, 8 subjects): 4 (50.0)
- Any AEs, cipargamin related: No. of AEs ([1]; 10 mg, 8 subjects): 10
- Any AEs: No. (%) of subjects with at least 1 AE ([1]; 10 mg, 8 subjects): 8 (100)
- Any AEs: No. of AEs ([1]; 10 mg, 8 subjects): 89
- Moderate AEs (grade 2), cipargamin related: No. (%) of subjects ([1]; 10 mg, 8 subjects): 2 (25.0)
- Moderate AEs (grade 2), cipargamin related: No. of AEs ([1]; 10 mg, 8 subjects): 2
- Moderate AEs (grade 2): No. (%) of subjects ([1]; 10 mg, 8 subjects): 7 (87.5)
- Moderate AEs (grade 2): No. of AEs ([1]; 10 mg, 8 subjects): 18
- SAEs: No. (%) of subjects ([1]; 10 mg, 8 subjects): 3 (37.5)
- SAEs: No. of AEs ([1]; 10 mg, 8 subjects): 3
- Severe AEs (grade 3), cipargamin related: No. (%) of subjects ([1]; 10 mg, 8 subjects): 2 (25.0)
- Severe AEs (grade 3), cipargamin related: No. of AEs ([1]; 10 mg, 8 subjects): 2
- Severe AEs (grade 3): No. (%) of subjects ([1]; 10 mg, 8 subjects): 2 (25.0)
- Severe AEs (grade 3): No. of AEs ([1]; 10 mg, 8 subjects): 3
- hematology, urinalysis, or electrocardiogram (ECG) parameters ([1]; 10 mg, 8 subjects): no clinically significant abnormalities
- maximum ALT, times ULN ([1]; subject 1): 5.2 × ULN
- maximum AST ([1]; subject 1): 88 U/liter
- maximum AST, times ULN ([1]; subject 1): 2.2 × ULN
- maximum ALT ([1]; subject 1, onset 8 days after dosing): 208 U/liter
- ALT ([1]; subject 3, 8 days after dosing): 187 U/liter
- ALT, times ULN ([1]; subject 3, 8 days after dosing): 4.6 × ULN
- AST ([1]; subject 3, 8 days after dosing): 106 U/liter
- AST, times ULN ([1]; subject 3, 8 days after dosing): 2.6 × ULN
- GGT ([1]; subject 3, 8 days after dosing): 215 U/liter
- GGT, times ULN ([1]; subject 3, 8 days after dosing): 4.3 × ULN
- bilirubin ([1]; subject 3, 8 days after dosing): 74 µmol/L
- bilirubin, times ULN ([1]; subject 3, 8 days after dosing): 3.7 × ULN
- conjugated bilirubin ([1]; subject 3, 8 days after dosing): 22 µmol/L
- conjugated bilirubin, times ULN ([1]; subject 3, 8 days after dosing): 3.1 × ULN
- peak ALT, times ULN ([1]; subject 8): 24.1 × ULN
- peak AST ([1]; subject 8): 443 U/liter
- peak AST, times ULN ([1]; subject 8): 11 × ULN
- peak GGT ([1]; subject 8): 159 U/liter
- peak GGT, times ULN ([1]; subject 8): 3.1 × ULN
- peak ALT ([1]; subject 8, onset 11 days after dosing): 964 U/liter
- parasite clearance half-life (P. vivax): 57 min

— paper PMC7849011, “Defining the Antimalarial Activity of Cipargamin in Healthy Volunteers Experimentally Infected with Blood-Stage Plasmodium falciparum” (Antimicrobial Agents and Chemotherapy, 2021)
